This note sets out measurements from ChEMBL document CHEMBL1909046, “DrugMatrix in vitro pharmacology data”.

The first assay has as its target T1, Neuropeptide Y receptor type 1 (Homo sapiens, UniProt P25929). Note: in other assays of this panel Not Active means under 50% inhibition at 10 µM.
T1 sequence (P25929 whole entry): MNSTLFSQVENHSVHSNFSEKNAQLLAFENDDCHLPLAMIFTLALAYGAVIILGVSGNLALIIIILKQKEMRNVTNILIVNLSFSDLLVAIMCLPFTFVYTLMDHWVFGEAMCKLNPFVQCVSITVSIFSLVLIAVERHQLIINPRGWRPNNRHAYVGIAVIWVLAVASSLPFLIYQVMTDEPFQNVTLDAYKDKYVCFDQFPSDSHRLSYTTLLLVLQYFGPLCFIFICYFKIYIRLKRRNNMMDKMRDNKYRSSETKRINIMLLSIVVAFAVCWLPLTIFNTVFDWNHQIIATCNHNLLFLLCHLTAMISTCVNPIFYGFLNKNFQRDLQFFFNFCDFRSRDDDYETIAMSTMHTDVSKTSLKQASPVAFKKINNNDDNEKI
Assay: not given
Type of assay: cell membranes, Membrane. The following applies: sk-n-mc.
On to `COC(=O)[C@H](c1ccccc1Cl)N1CCc2sccc2C1` [CLOPIDOGREL], for which the IC50 result is listed as “Not Active”.
For the compound `Brc1ccccc1` [BROMOBENZENE], the IC50 entry is on record as “Not Active”.
Consider `CC(C)NC[C@H](O)COc1cccc2[nH]ccc12`, for which the IC50 entry is “Not Active”.

A further assay addresses T2, C-C chemokine receptor type 4 (Homo sapiens, UniProt P51679).
T2 sequence (P51679 whole entry): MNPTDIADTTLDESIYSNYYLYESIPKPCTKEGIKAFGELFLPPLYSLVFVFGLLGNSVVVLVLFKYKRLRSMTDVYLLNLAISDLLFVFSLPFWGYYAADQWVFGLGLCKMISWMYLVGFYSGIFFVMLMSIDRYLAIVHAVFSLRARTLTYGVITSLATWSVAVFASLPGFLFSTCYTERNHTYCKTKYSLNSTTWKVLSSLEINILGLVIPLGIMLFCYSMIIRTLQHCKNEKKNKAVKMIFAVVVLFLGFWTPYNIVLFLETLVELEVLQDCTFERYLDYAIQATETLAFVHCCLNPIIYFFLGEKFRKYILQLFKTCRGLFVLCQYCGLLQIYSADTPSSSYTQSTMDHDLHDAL
Assay: not given
Type of assay: cell membranes, Membrane. The following applies: chem-1.
Turning to `COC(=O)[C@H](c1ccccc1Cl)N1CCc2sccc2C1` [CLOPIDOGREL], the IC50 result is “Not Active”.
Regarding `Brc1ccccc1` [BROMOBENZENE], the IC50 result is recorded as “Not Active”.
For the compound `CC(C)NC[C@H](O)COc1cccc2[nH]ccc12`, the IC50 result is recorded as “Not Active”.

The next assay deals with cGMP-specific 3',5'-cyclic phosphodiesterase (Homo sapiens, UniProt O76074). The assay can be described thus: DRUGMATRIX: Phosphodiesterase PDE5 enzyme inhibition (substrate: [3H]cGMP + cGMP). Type of assay: tissue-based, Platelet. To be noted: platelet; Not Active = under 50% inhibition at 10 µM.
Consider `COC(=O)[C@H](c1ccccc1Cl)N1CCc2sccc2C1` [CLOPIDOGREL], for which the IC50 entry was “Not Active”.
Turning to `Brc1ccccc1` [BROMOBENZENE], the IC50 result is reported as “Not Active”.
Still for that read-out and setting: as for `CC(C)NC[C@H](O)COc1cccc2[nH]ccc12`, the entry is “Not Active”.

A further assay deals with T3, Neutrophil elastase (Homo sapiens, UniProt P08246).
T3 sequence (P08246 whole entry): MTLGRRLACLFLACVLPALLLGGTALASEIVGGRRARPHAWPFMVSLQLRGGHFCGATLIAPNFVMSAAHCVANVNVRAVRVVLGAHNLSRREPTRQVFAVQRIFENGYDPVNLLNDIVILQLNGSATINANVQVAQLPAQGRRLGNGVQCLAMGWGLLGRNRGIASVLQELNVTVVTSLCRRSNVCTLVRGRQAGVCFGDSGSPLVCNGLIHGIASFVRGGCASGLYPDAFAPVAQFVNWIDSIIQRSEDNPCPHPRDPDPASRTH
Assay: not given
In kind it is tissue-based.
Conditions: not given
Regarding `COC(=O)[C@H](c1ccccc1Cl)N1CCc2sccc2C1` [CLOPIDOGREL], the IC50 entry is recorded as “Not Active”.
In the case of `Brc1ccccc1` [BROMOBENZENE], the IC50 entry is reported as “Not Active”.
Regarding `CC(C)NC[C@H](O)COc1cccc2[nH]ccc12`, the IC50 entry was “Not Active”.

Test system in a further assay: not listed separately
The assay can be described thus: DRUGMATRIX: ATPase, Na+/K+ enzyme inhibition (substrate: ATP). In kind it is tissue-based, Sus scrofa, Heart. To be noted: Not Active = under 50% inhibition at 10 µM.
With `COC(=O)[C@H](c1ccccc1Cl)N1CCc2sccc2C1` [CLOPIDOGREL], the IC50 entry was “Not Active” and the Ki entry is on record as “Not Active”.
Consider `Brc1ccccc1` [BROMOBENZENE], for which the IC50 result is reported as “Not Active” and the Ki result was “Not Active”.
For `CC(C)NC[C@H](O)COc1cccc2[nH]ccc12`, the IC50 entry is “Not Active” and the Ki entry is “Not Active”.

A further assay addresses T4, Leukotriene C4 synthase (Cavia porcellus, UniProt A6XA80).
T4 sequence (A6XA80 whole entry): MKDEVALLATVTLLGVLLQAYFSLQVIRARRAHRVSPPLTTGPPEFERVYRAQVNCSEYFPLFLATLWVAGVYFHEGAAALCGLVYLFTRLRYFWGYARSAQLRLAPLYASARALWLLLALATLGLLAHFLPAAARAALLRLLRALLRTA
As to the kind of experiment: biochemical. In kind it is tissue-based, Lung.
Conditions: not given
On to `COC(=O)[C@H](c1ccccc1Cl)N1CCc2sccc2C1` [CLOPIDOGREL], for which the IC50 result was “Not Active”.
As for `Brc1ccccc1` [BROMOBENZENE], the IC50 entry is “Not Active”.
As for `CC(C)NC[C@H](O)COc1cccc2[nH]ccc12`, the IC50 entry is “Not Active”.

Test system in a further assay: not listed separately
The assay can be described thus: DRUGMATRIX: Phorbol Ester radioligand binding (ligand: [3H] PDBu). In kind it is cell membranes, Mus musculus, ICR, Brain, Membrane. To be noted: Not Active = under 50% inhibition at 10 µM.
Consider `COC(=O)[C@H](c1ccccc1Cl)N1CCc2sccc2C1` [CLOPIDOGREL], for which the IC50 entry is given as “Not Active” and the Ki result is recorded as “Not Active”.
For the compound `Brc1ccccc1` [BROMOBENZENE], the IC50 entry is “Not Active” and the Ki entry is “Not Active”.
`CC(C)NC[C@H](O)COc1cccc2[nH]ccc12`: the IC50 result was “Not Active” and the Ki entry is recorded as “Not Active”.

Test system in a further assay: not listed separately
As to the kind of experiment: DRUGMATRIX: Glutamate, Kainate radioligand binding (ligand: [3H] Kainic acid). In kind it is cell membranes, Rattus norvegicus, Wistar, Brain, Membrane. To be noted: Not Active = under 50% inhibition at 10 µM.
Turning to `COC(=O)[C@H](c1ccccc1Cl)N1CCc2sccc2C1` [CLOPIDOGREL], the IC50 entry is “Not Active” and the Ki entry is “Not Active”.
On to `Brc1ccccc1` [BROMOBENZENE], for which the IC50 entry was “Not Active” and the Ki entry is “Not Active”.
In the case of `CC(C)NC[C@H](O)COc1cccc2[nH]ccc12`, the IC50 entry is on record as “Not Active” and the Ki entry is recorded as “Not Active”.

The target of the next assay is Estrogen receptor beta (Homo sapiens, UniProt Q92731). Note: in other assays of this panel Not Active means under 50% inhibition at 10 µM.
Sequence of Estrogen receptor beta (Q92731 whole entry): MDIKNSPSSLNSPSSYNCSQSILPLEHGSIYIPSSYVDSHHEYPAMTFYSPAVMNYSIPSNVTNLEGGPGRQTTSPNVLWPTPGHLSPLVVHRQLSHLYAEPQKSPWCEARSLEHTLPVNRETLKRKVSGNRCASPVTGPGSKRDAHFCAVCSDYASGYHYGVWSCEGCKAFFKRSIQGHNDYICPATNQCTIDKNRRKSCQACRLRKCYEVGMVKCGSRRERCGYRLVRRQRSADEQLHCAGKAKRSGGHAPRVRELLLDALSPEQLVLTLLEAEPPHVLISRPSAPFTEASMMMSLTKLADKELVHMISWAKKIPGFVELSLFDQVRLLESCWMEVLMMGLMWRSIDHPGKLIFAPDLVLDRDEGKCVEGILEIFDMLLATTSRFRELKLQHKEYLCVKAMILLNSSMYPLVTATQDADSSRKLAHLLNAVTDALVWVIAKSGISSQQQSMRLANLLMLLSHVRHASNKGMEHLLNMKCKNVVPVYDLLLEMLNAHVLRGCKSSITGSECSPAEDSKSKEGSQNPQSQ
Assay: not given
The following applies: sf9.
Regarding `COC(=O)[C@H](c1ccccc1Cl)N1CCc2sccc2C1` [CLOPIDOGREL], the IC50 result is “Not Active”.
With `Brc1ccccc1` [BROMOBENZENE], the IC50 entry is “Not Active”.
Turning to `CC(C)NC[C@H](O)COc1cccc2[nH]ccc12`, the IC50 result is given as “Not Active”.

Test system in a further assay: not listed separately
As to the kind of experiment: DRUGMATRIX: Glutamate, AMPA radioligand binding (ligand: [3H] AMPA). In kind it is cell membranes, Rattus norvegicus, Wistar, Cerebral cortex, Membrane. To be noted: Not Active = under 50% inhibition at 10 µM.
`COC(=O)[C@H](c1ccccc1Cl)N1CCc2sccc2C1` [CLOPIDOGREL]: the IC50 entry is reported as “Not Active” and the Ki result is listed as “Not Active”.
As to `Brc1ccccc1` [BROMOBENZENE], the IC50 entry is “Not Active” and the Ki result is recorded as “Not Active”.
For the compound `CC(C)NC[C@H](O)COc1cccc2[nH]ccc12`, the IC50 entry was “Not Active” and the Ki result is recorded as “Not Active”.

For the next assay, the target named is C-C chemokine receptor type 2 (Homo sapiens, UniProt P41597). Note: in other assays of this panel Not Active means under 50% inhibition at 10 µM.
Sequence of C-C chemokine receptor type 2 (P41597 whole entry): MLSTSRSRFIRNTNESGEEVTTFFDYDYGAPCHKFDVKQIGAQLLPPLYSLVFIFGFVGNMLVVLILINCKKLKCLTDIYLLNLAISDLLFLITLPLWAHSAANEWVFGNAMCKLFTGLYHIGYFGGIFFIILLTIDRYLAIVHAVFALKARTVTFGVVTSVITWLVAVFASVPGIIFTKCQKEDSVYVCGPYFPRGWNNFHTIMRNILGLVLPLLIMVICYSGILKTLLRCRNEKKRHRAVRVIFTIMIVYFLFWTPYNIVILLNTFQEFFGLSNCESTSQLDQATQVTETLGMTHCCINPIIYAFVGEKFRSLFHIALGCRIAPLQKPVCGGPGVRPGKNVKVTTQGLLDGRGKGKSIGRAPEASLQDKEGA
Assay: not given
The following applies: cho-k1. Type of assay: cell membranes, CHO-K1, Membrane.
Turning to `COC(=O)[C@H](c1ccccc1Cl)N1CCc2sccc2C1` [CLOPIDOGREL], the IC50 result is reported as “Not Active”.
Take `Brc1ccccc1` [BROMOBENZENE]: the IC50 result is reported as “Not Active”.
Consider `CC(C)NC[C@H](O)COc1cccc2[nH]ccc12`, for which the IC50 entry is “Not Active”.

Another assay deals with T5, Nitric oxide synthase, inducible (Mus musculus, UniProt P29477).
T5 sequence (P29477 whole entry): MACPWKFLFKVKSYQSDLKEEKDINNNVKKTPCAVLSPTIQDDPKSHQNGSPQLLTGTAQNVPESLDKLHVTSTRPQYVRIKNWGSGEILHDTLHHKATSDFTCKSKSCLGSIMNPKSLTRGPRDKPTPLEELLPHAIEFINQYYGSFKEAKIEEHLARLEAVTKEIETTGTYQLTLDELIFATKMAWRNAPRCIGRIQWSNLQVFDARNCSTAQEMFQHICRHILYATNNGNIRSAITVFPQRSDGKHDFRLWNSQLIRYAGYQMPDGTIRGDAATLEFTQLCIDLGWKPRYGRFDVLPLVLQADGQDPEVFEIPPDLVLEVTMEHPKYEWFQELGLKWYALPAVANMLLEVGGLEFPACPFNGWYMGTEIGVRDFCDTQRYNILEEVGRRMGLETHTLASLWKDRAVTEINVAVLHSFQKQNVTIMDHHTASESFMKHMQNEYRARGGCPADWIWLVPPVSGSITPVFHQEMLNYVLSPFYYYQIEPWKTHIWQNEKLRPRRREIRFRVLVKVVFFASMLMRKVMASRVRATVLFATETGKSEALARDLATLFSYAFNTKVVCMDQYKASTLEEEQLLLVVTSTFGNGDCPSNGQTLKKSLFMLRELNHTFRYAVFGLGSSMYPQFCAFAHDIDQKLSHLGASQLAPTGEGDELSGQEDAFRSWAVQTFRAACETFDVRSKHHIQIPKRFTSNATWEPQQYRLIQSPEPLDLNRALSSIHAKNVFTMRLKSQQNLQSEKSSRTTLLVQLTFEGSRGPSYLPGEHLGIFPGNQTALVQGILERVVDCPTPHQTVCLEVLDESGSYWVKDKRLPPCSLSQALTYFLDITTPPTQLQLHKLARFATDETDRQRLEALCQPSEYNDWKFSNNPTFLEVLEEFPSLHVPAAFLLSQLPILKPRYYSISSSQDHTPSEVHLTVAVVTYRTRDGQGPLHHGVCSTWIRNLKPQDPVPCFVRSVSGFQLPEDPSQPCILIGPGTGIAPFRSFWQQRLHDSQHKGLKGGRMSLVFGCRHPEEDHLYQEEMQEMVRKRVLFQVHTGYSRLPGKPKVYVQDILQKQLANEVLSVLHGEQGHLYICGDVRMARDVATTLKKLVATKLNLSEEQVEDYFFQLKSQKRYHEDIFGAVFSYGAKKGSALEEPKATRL
Assay: not given
Further details: species or system Escherichia coli.
Conditions: not given
`COC(=O)[C@H](c1ccccc1Cl)N1CCc2sccc2C1` [CLOPIDOGREL]: the IC50 entry was “Not Active”.
Consider `Brc1ccccc1` [BROMOBENZENE], for which the IC50 result was “Not Active”.
`CC(C)NC[C@H](O)COc1cccc2[nH]ccc12`: the IC50 entry is listed as “Not Active”.

In the next assay the target is Insulin receptor (Rattus norvegicus, UniProt P15127). Note: in other assays of this panel Not Active means under 50% inhibition at 10 µM.
Sequence of Insulin receptor (P15127 27-759 limits assumed): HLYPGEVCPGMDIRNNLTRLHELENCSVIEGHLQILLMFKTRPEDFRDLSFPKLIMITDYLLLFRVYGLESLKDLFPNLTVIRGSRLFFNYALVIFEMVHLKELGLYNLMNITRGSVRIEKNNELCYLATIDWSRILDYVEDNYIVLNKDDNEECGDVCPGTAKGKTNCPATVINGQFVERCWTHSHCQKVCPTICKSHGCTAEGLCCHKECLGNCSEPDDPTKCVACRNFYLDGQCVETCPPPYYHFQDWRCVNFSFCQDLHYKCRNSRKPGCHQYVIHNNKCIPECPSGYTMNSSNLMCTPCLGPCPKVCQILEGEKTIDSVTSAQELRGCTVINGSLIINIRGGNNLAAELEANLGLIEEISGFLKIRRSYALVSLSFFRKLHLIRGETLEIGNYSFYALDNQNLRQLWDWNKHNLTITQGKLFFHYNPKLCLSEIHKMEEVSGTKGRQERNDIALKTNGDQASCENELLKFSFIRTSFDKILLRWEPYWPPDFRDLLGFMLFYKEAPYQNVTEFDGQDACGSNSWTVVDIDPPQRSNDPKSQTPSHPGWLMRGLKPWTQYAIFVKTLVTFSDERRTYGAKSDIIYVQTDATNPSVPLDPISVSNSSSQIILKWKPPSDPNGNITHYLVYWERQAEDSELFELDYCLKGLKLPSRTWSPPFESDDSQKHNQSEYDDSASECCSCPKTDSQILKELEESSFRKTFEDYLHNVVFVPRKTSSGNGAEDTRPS
Sequence of Insulin receptor (P15127 764-1383 limits assumed): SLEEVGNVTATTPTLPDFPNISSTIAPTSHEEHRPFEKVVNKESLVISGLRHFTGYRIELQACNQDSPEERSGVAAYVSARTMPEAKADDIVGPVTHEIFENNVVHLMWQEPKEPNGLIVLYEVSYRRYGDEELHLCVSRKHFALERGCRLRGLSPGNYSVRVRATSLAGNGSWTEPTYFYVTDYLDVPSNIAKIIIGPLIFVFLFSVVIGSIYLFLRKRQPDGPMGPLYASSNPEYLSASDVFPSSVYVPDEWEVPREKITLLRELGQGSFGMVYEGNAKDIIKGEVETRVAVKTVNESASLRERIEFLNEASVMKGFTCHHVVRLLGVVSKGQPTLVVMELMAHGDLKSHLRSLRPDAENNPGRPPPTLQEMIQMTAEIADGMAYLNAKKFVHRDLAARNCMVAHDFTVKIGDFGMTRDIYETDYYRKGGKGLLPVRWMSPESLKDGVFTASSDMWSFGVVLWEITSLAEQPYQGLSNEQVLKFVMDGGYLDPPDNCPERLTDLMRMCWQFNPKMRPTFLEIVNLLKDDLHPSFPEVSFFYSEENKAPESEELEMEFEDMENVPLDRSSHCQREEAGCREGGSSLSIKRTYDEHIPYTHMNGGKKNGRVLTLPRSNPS
Assay: not given
In kind it is cell membranes, Wistar, Liver, Membrane.
Conditions: not given
Take `COC(=O)[C@H](c1ccccc1Cl)N1CCc2sccc2C1` [CLOPIDOGREL]: the IC50 result was “Not Active”.
On to `Brc1ccccc1` [BROMOBENZENE], for which the IC50 entry was “Not Active”.
Still for that read-out and setting: as for `CC(C)NC[C@H](O)COc1cccc2[nH]ccc12`, the entry is “Not Active”.
